Among the data in a melting point compilation (Tetko et al.; mined from patent text by program, amines drawn as free bases though some values may be those of a salt) are melting point values, retold here.

Each structure is given as a SMILES string.

A word on the melting point: it is the temperature of the solid-liquid transition. Consider `CCCc1c(CSc2nnc(SCCCCCCC(=O)O)s2)ccc(C(C)=O)c1O`, for which the melting point was 63 to 68 °C.

The compound `O=c1[nH]nc(-c2ccccc2)c(-c2ccccc2)c1S(=O)(=O)c1ccccc1` came in with a melting point of 254 to 256 °C.

`COc1ccc(Cn2nnnc2C(=O)Nc2cc(OCCCOc3ccc(C(C)=O)c(O)c3CCC(F)(F)F)c(Br)cc2C)cc1` yielded a melting point of 140 to 142 °C.

Turning to `CCCNC(=O)Cc1cnc2cccc(C)n2c1=O`, the melting point lay within 96 to 98 °C.

Regarding `Cc1ccccc1C1=NOC2(C1)OC(=O)c1ccccc12` (stereo unspecified), the melting point lay within 146 to 149 °C.

Turning to `O=c1[nH]c2ccccc2n2ccnc12`, the melting point was above 300 °C.

In turn, `CCCCCCCCCCCCCCCCCC(=O)Oc1nc2c(N)ncnc2n1Cc1ccccc1` registered a melting point of 128 to 129 °C.

As for `COc1cc(N)c(Cl)cc1C(=O)N[C@H]1CCN(CCCNc2nc3ccccc3s2)C[C@H]1OC` (relative stereo), the melting point is 162 °C.

The compound `CNCC(O)c1cccc(F)c1` (stereo unspecified) registered a melting point of 63 to 65 °C.

For the compound `CCOC(=O)c1nc(C)n2c1CN=C(c1ccccc1Cl)c1cc(Cl)ccc1-2`, the melting point was in the range of 214 to 215 °C.

Take `CC12CC(O)C3c4ccccc4C(=O)CC3C1CCC2O` (stereo unspecified): the melting point was 205 to 208 °C.

In the case of `COc1ccc2c(=O)n3cccc3oc2c1`, the melting point lay within 128 to 129 °C.

In turn, `CC(C)Oc1cc(/C=C/C(=O)O)n(Cc2ncc(C(F)(F)F)cc2Cl)n1` yielded a melting point of 130 to 132 °C.

The compound `CSc1ccc(-c2cc(-c3nc4ccccc4c(=O)n3-c3ccccc3)sc2N2CCOCC2)cc1` returned a melting point of 218 to 220 °C.

As for `CC(=O)Nc1cc(C(=O)O)ccc1C(F)(F)F`, the melting point lay within 195 to 197 °C.

As for `CCc1ccc(-c2ccc3c(c2)C=C(C(=O)Nc2ccc(CN(C)C4CCOCC4)cc2)CCS3(=O)=O)cc1`, the melting point is 257 to 260 °C.

`CCOC(=O)c1ccc(SC)cc1C(=O)OCC`: the melting point was in the range of 178 to 181 °C.

With `O=[N+]([O-])c1cc(Br)ccc1N1CCc2ccccc21`, the melting point lay within 100 to 102 °C.

On to `CCOC(=O)COc1cc2cc(CC)sc2c(Cl)c1Cl`, for which the melting point is 67 to 68 °C.

With `CN(C)C=C(C#N)C(=O)Nc1c(F)cccc1F`, the melting point lay in the range of 180 to 181 °C.

On to `CS(=O)(=O)c1ccccc1-c1ccc(C(=O)N2Cc3ccc(C(=O)NCc4cccnc4)n3Cc3ccccc32)cc1`, for which the melting point was in the range of 153 to 156 °C.

Compound `CCCCCCCCCCCCCCCCCCC(NC(C)=O)(C(=O)OCC)C(=O)OCC` had a melting point of 70 to 71 °C.

For the compound `Cc1c(-c2nnn[nH]2)oc2c(c1=O)CSc1ccccc1-2`, the melting point lay in the range of 247 to 248 °C.

Compound `CC(C)(Oc1ccc(CC(=O)Nc2ccc(F)cc2)cc1)C(=O)O` showed a melting point of 198 °C.

For the compound `Cc1cc(=O)[nH]c2c(C)cc(Br)cc12`, the melting point was above 300 °C.

Compound `CC(C)(C)c1ccc(NC(=O)c2ccc(C3NOC(=O)N3)cc2)cc1` (stereo unspecified) registered a melting point above 300 °C.

On to `CCOC(=O)NC(=O)C1c2ccccc2Oc2ccc(Br)cc21` (racemic), for which the melting point came to 203 °C.

Compound `Nc1nc2c(ncn2/C=C2/CC2(CO)CO)c(=O)[nH]1` showed a melting point above 300 °C.

Take `CCOC(=O)c1cc(C(=O)c2cccc(S(=O)(=O)F)c2)sc1N=Nc1ccc(O)c(N)n1`: the melting point was 170 to 172 °C.

In turn, `COc1c(S(=O)(=O)NCc2ccc(Cl)cc2)cc(Br)c2ccc(C)nc12` registered a melting point of 108 to 110 °C.

Consider `Cc1cccc(C)c1NC(=O)CCCSc1cc(C(C)(C)C)c(O)c(C(C)(C)C)c1`, for which the melting point was 140 °C.

With `CCOC(=O)c1c(OCc2ccccc2)cc(C(F)(F)F)nc1C(F)(F)F`, the melting point was 56 to 58.5 °C.

Take `CN1C(=O)Cc2cc(CBr)cnc21`: the melting point amounted to 65 °C.

`c1ccc2c(c1)NCc1cscc1N2` had a melting point of 167 to 169 °C.

`OCc1ccc(-c2cccc(-c3cn([C@H]4CN5CCC4CC5)nn3)c2)s1` registered a melting point of 176 °C.

The compound `COc1ccc(N2CCN(c3c(C)c(C)c4c(c3C)C(N3CCCc5ccccc53)C(C)(C)O4)CC2)cc1` (stereo unspecified) came in with a melting point of 188 to 190 °C.

Take `Nc1c2c(nc3[nH]c4ccccc4c13)CCCC2=O`: the melting point is above 300 °C.

In the case of `CCOc1ccc2nc(NC(=O)N(C)C)sc2c1`, the melting point was in the range of 183 to 186 °C.

On to `C=C(C)COc1ccc2c(C)cc(=O)oc2c1C(=O)C=Cc1ccccc1`, for which the melting point was in the range of 158 to 160 °C.

Consider `COc1cc2cc(C(=O)Nc3cc(NC(=O)OCc4ccccc4)c4ccccc4c3CCCl)[nH]c2c(OC)c1OC`, for which the melting point lay within 58 to 62 °C.

`Cc1cc(C)c(C(=O)c2ccccc2C)c(O)c1`: the melting point is 65 to 67 °C.

`N#Cc1c2c(n(Cc3ccccc3)c1N)CCCC2` displayed a melting point of 128 to 130 °C.

Consider `COc1cc(-c2ccccc2C)ccc1C(=O)N1Cc2ccc(C(=O)O)n2Cc2ccccc21`, for which the melting point is 144 to 146 °C.

Compound `CNc1nnnn1-c1ccccc1C(=O)O` registered a melting point of 152 to 154 °C.

In turn, `CS(=O)(=O)c1ccc(C(CC2CCCC2)C(=O)Nc2nccs2)cc1NO` (stereo unspecified) had a melting point of 124 to 126 °C.

`CC(=O)OCCc1ccc2c(c1)Cc1ccccc1O2` came in with a melting point of 62 to 64 °C.

With `COc1ccc(C(=O)c2ccc3cc(OC)ccc3c2-c2ccccc2)cc1`, the melting point was 122 to 124 °C.

In turn, `CCNC(=O)c1cccc(F)c1Nc1nc(Cl)ncc1Cl` returned a melting point of 233 to 234 °C.

As for `Cn1nc2nc(C(C)(C)C)[nH]c(=O)c2c1N(S(C)(=O)=O)S(C)(=O)=O`, the melting point is 258 to 259 °C.

In turn, `COc1cc(C(=O)c2ccc([N+](=O)[O-])cc2)c(CC(=O)O)cc1Cl` yielded a melting point of 185 to 188 °C.

`Nc1cc(Cl)ncc1F` gave a melting point of 110 to 111 °C.

Take `COC(=O)CC[C@H](NC(=O)c1ccc(CCn2cnc3nc(NC(=O)C(C)(C)C)cc-3c2O)cc1)C(=O)OC`: the melting point turned out to be 247 °C.

Consider `OC(Cn1cncn1)(Cn1cnc(C=Cc2ccc(C(F)(F)F)cc2)n1)c1ccc(Cl)cn1` (stereo unspecified), for which the melting point was in the range of 159 to 161 °C.

In turn, `CC(C)Cc1ccc2sc3cc(CC(=O)O)ccc3c2c1` returned a melting point of 133 to 135 °C.

`O=C(O)CCc1nnc2c(=O)[nH]c3cc(C(F)(F)F)ccc3n12` registered a melting point of 333 °C.

`O=C(Cl)c1c(Cl)nc2ccc(Br)cc2c1-c1ccccc1` displayed a melting point of 166 to 170 °C.

`c1ccc2c(c1)sc1nncn12` yielded a melting point of 175 to 176 °C.

With `COc1ccc(Cc2ccc(CO)cc2)cc1`, the melting point was 68 to 72 °C.

Take `CC1(Cc2ccc(Br)cc2)C(=O)N(c2cc(Cl)cc(Cl)c2)c2ccccc21` (stereo unspecified): the melting point was 129 to 130 °C.

Consider `COc1cccc(OC)c1C(=O)Nc1ccc(OCCN2CCCC2)cc1`, for which the melting point was in the range of 136 to 140 °C.

For `CCCCNC(=NC#N)Nc1ccc(C2=NNC(=O)CC2C)cc1` (stereo unspecified), the melting point lay within 184 to 186 °C.

Turning to `Nc1ccccc1C(=O)NCCCn1ccnc1`, the melting point was 107 to 110 °C.

`CC(CO)CCCC(C)C1CC=C2C3=C(CCC21C)C1(C)CCC(O)C(C)(C)C1CC3` (stereo unspecified): the melting point lay within 180 to 181 °C.

On to `COC(=O)C[C@@H]1Nc2ccc(NC(=O)OC(C)(C)C)cc2CNC1=O`, for which the melting point is 167 to 169 °C.

For the compound `FC(F)(F)c1ccc(/C=C/c2nc(COc3cccc(CCCn4ccnn4)c3)co2)cc1`, the melting point is 115 to 116 °C.

With `CCOC(=O)[C@@H](Cc1cccnc1)NC(C)=O`, the melting point stood at 80 °C.

`O=CNC(C(=O)O)c1ccccc1` (stereo unspecified) gave a melting point of 170 to 175 °C.

`c1cc(-n2cccc2)cc(-n2cnc3cc(-c4ccco4)ccc32)c1` showed a melting point of 137 to 139 °C.

In the case of `COC(=O)Cc1cn(-c2ccccc2)nc1OCc1ccccc1`, the melting point lay within 74 to 75 °C.

As to `CC1(O)CC(=O)OC(C=Cc2ccc(OCc3ccccc3)cc2)C1` (stereo unspecified), the melting point lay in the range of 155 to 156 °C.

`Cc1ccc(C(=O)Nc2ccc(S(N)(=O)=O)cc2)c(SSc2cc(C)ccc2C(=O)Nc2ccc(S(N)(=O)=O)cc2)c1` came in with a melting point of 319 to 320 °C.

For the compound `CC(C)CNCC(=O)Nc1cccc2c1C(=O)c1c(NC(=O)CNCC(C)C)cccc1C2=O`, the melting point lay within 139 to 140 °C.

Consider `O=C(O)C(=O)NCCC(F)=C(F)F`, for which the melting point lay in the range of 95 to 100 °C.

For `CN(C(=O)c1ccc(Cn2ncc3ccccc32)cc1)C1CCNCC1`, the melting point was in the range of 146 to 148 °C.

The compound `Cc1cc(Cc2n[nH]c(=O)c3ccccc23)cc(C)n1` registered a melting point of 229 to 230 °C.

The compound `COc1cc2nc(N3CCN(C(=O)C4=CCCC4)CC3)nc(N)c2cc1OC` came in with a melting point of 256 to 258 °C.

`Cc1ccc(C(=O)c2cnoc2C2CC2)cc1S(C)(=O)=O` yielded a melting point of 126 to 128 °C.

As to `Cc1cc(C)cc(-c2cn(C)cc(-c3cccc(C(F)(F)F)c3)c2=O)c1`, the melting point lay within 160 to 163 °C.

As to `O=C(O)c1oc(-c2ccccc2)cc(=O)c1Br`, the melting point came out at 247 °C.

`CC#CCOc1ccc(S(=O)(=O)N(C)C(CCCSc2ccc(Cl)cc2)(NC)C(=O)O)cc1` (stereo unspecified) showed a melting point of 143 to 145 °C.

Take `COc1cccc2c1CCC(O)(C(C)=O)C2` (stereo unspecified): the melting point was 63 to 63.5 °C.

Compound `NCCC(O)(c1ccc(Br)cc1)c1cccnc1` (stereo unspecified) displayed a melting point of 95 to 115 °C.

Compound `N#Cc1ccc(C(=O)c2ccc(S)cc2)cc1` returned a melting point of 156 °C.

On to `CC(C)(C)OC(=O)N1CCC(O)(Cc2ccc3ccccc3n2)CC1`, for which the melting point lay within 119 to 121 °C.

For `O=C(CCCl)c1cc2[nH]c(=O)[nH]c2cc1Cl`, the melting point lay in the range of 201 to 204 °C.

`CCCN(CCC(O)c1csc2ccc(F)cc12)C1COc2c(F)ccc(C(N)=O)c2C1` (stereo unspecified) returned a melting point of 117 °C.

Compound `O=C1CCCCCCCCCCCCCCC1` showed a melting point of 67.7 °C.

`CCCCCCCCNC(=O)N(C)C[C@H](O)[C@@H](O)[C@H](O)[C@H](O)CO` came in with a melting point of 111 °C.

In turn, `CCCCOC(=O)C1CC(n2cnc3c(N)ncnc32)C(O)C1O` (stereo unspecified) returned a melting point of 173 to 175 °C.

In the case of `NN(c1ccccc1)C1CCS(=O)(=O)C1` (stereo unspecified), the melting point lay in the range of 120 to 121 °C.

As for `CNC(=S)Nc1ccc(C)cn1`, the melting point stood at 161 °C.
